Assay results published in patent publication US9163003B2, “4-piperidinyl compounds for use as tankyrase inhibitors” (NOVARTIS AG, priority 2011, dated 2015).
Where two headings read alike, the source gives them in different places.

Key:
Axin2 protein = assay: Cellular ELISA assay for stabilizing the Axin2 protein in SW480 cells; assay type: cell-based; conditions: 24 hrs treatment, read-out: Axin AC50
Description: Compound activity in stabilizing the Axin2 protein was measured by Sandwich Enzyme-Linked Immuosorbent (ELISA) assay in the colorectal cell line SW480. 30,000 SW480 cells were seeded per well in 96-well plate and incubated overnight prior to compound treatment. Cells were then treated with compounds in 6-point dilution starting at 10 μM for 24 hrs. Cells were then washed with 100 μL of cold Phosphate Buffer Saline (PBS), and lysed in 125 μl of cold 1× lysis buffer (Cell Signaling Technology, 9803) supplemented with Protease inhibitor (Roche, 11836170) and Phosphatase inhibitors (Sigma, P2850, P5726). For the ELISA assay, anti Axin-2 capture antibody (Strategic Diagnostics) antibody was diluted to a concentration of 1 μg/ml (1:1000) in Carbonate Coating buffer, pH 9.2 (Sigma, C3041-50CAP). 100μ of the diluted anti Axin-2 capture antibody per well was then used to coat the 96-well ELISA plate (Thermo Electron Corp., MicroLite 1 flat bottom plate #7571) overnight at 4° C. Plates were then washed three times with 300 μl/well of wash solution, PBST20 (PBS+0.05% Tween), and blocked with 300 μl/well 1% BSA/PBS (BSA, Millipore Probumin #82-045-1) for 1.5 hours at room temperature while shaking gently. After blocking, plates were then washed three times with 300 μl/well of wash solution. 100 μL of prepared SW480 cell lysate was then added to each well and incubated at room temperature for 2 hours while shaking gently. After washing, 100 μL of Biotinylated anti-Axin2 antibody (CST, 2151) was added to each well and incubated room temperature for 2 hours. 100 μL of Streptavidin-HRP (R&D systems, DY998) diluted 1:200 in 1% BSA/PBS was then added in each well and incubate for 30 mins at R/T in the dark. Signal was detected by Chemiluminescence (Pierce SuperSignal ELISA Femto #3704), and measured on PerkinElmer Wallac 1420 plate reader.

[1] = biological target: tankyrase 2 protein PARP domain, TNKS2P (GST-tagged) (Homo sapiens (Human), UniProt Q9H2K2); assay: TNKS2 autoparsylation (AP) biochemical assay, LC/MS detection of nicotinamide; conditions: 20 nM enzyme, 250 μM NAD+, 60 min room temperature
Chain of tankyrase 2 protein PARP domain, TNKS2P (GST-tagged) (Q9H2K2 959-1164): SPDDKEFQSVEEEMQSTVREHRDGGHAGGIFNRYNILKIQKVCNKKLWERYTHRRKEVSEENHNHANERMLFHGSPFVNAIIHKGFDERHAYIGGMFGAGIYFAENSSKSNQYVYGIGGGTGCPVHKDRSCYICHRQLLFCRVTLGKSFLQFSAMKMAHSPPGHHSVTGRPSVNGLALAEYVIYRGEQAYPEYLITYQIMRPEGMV

[2] = biological target: human tankyrase 1 PARP catalytic domain, TNKS1P (GST-tagged) (Homo sapiens (Human), UniProt O95271); assay: TNKS1 autoparsylation (AP) biochemical assay, LC/MS detection of nicotinamide; conditions: 20 nM enzyme, 250 μM NAD+, 60 min room temperature
Chain of human tankyrase 1 PARP catalytic domain, TNKS1P (GST-tagged) (O95271 1112-1317): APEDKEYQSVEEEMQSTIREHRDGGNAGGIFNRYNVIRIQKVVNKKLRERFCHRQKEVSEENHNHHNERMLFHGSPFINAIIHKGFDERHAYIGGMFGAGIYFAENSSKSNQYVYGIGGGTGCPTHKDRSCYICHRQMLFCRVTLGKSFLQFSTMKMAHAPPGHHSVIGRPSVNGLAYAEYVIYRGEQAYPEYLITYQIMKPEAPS
Description: The human tankyrase 1 PARP catalytic domain, TNKS1P, was cloned into a pDONR221 vector using the Invitrogen Gateway Technology. This entry clone was then subcloned into the destination vector pDEST20 to obtain the N-terminal Glutathione S-transferase (GST)-tagged fusion protein.
The autoparsylation activity of the TNKS 1/2 or PARP1/2 enzymes was measured by the liquid chromatography-mass spectrometry (LC/MS) detection of nicotinamide as readout. Compound activity in inhibiting the TNKS and PARP autoparsylation was evaluated by IC50 measurements.

[3] = test system: Wnt ligand-induced signaling; assay: Wnt-responsive Super-TOpFlash (STF) luciferase reporter gene assay in HEK293 cells; assay type: cell-based; conditions: Wnt3A condition medium induced
Description: Compound activity in inhibiting Wnt ligand-induced signaling was measured using a Wnt-responsive Super-TOpFlash (STF) luciferase reporter gene assay in HEK293 cells. On day 1 of the assay, cells were plated at a density of 8000 cells per well of 384-well plate in 25 μl medium containing 5% fetal bovine serum (FBS). On the second day, […] condition medium (CM) produced from mouse L cells was added to the cells to induce Wnt signaling, followed by addition of 5 μL of compounds each well in 10-point serial dilution. On the third day, the luciferase activity was measured by the Bright-Glo™ Luciferase Assay System following manufacture's protocol (Promega, E2620). The Inhibition was calculated as: (Maximum Wnt-induced signaling−Sample)/(Maximum Wnt-induced signaling−Background)*100. “Maximum Wnt-induced signaling” is the STF signal level induced by 20% Wnt3A CM without compound; and “Background” is the STF signal level without the addition of Wnt3A CM or compound.

[4] = test system: Non-small lung cancer ABC-1 cells; assay: Cellular proliferation assay, ABC-1 cells (CellTiter-Glo); assay type: cell-based; conditions: 3 days of compound treatment
Description: Non-small lung cancer ABC-1 cells were plated at 5000 cells per well in 96-well plates and treated with 8 serial compound dilutions starting from 10 μM as the highest concentration. Viable cells were measured after 3 days of compound treatment using the CellTiter-Glo assay (Promega, G7570). Assay was performed following the manufacture protocol.

Compound: COc1ccc(C(=O)C2CCN(C3CCN(Cc4cccc(Cl)c4C#N)C3=O)CC2)cc1 (stereo not drawn) [Example 1, 2-Chloro-6-{3-[4-(4-methoxy-benzoyl)-piperidin-1-yl]-2-oxo-pyrrolidin-1-ylmethyl}-benzonitrile]
- AC50 (Axin2 protein; Homo sapiens): 239 ± 31 nM
- IC50 [1]: 81 ± 1 nM
- IC50 [2]: 162 ± 4 nM
- IC50 ([3]; Homo sapiens): 99 ± 11 nM
- IC50 ([4]; Homo sapiens, 72 h): 408 nM

Compound: COc1ccc(C(=O)C2CCN([C@@H]3CCN(Cc4nc5c(c(=O)[nH]4)COCC5)C3=O)CC2)cc1 [Example 4, 2-{(R)-3-[4-(4-Methoxy-benzoyl)-piperidin-1-yl]-2-oxo-pyrrolidin-1-ylmethyl}-3,5,7,8-tetrahydro-pyrano[4,3-d]pyrimidin-4-one]
- AC50 (Axin2 protein; Homo sapiens): 310 ± 270 nM
- IC50 [1]: 600 ± 330 nM
- IC50 [2]: 1600 ± 1200 nM
- IC50 ([3]; Homo sapiens): 95 ± 11 nM
- IC50 ([4]; Homo sapiens, 72 h): 1020 ± 340 nM

Compound: COc1ccc2c(c1)CC1(CCN(C3CCN(Cc4nc5c(c(=O)[nH]4)COCC5)C3=O)CC1)C2=O (stereo not drawn) [Example 15, 2-((3-(5-methoxy-1-oxo-1,3-dihydrospiro[indene-2,4′-piperidine]-1′-yl)-2-oxopyrrolidin-1-yl)methyl)-7,8-dihydro-3H-pyrano[4,3-d]pyrimidin-4(5H)-one]
- AC50 (Axin2 protein; Homo sapiens): 16 ± 1 nM
- IC50 [2]: 33 ± 2 nM
- IC50 ([3]; Homo sapiens): < 0.5 nM
- IC50 ([4]; Homo sapiens, 72 h): 43 nM

Compound: COc1ccc2c(c1)CC1(CCN([C@H]3CCN(Cc4nc5c(c(=O)[nH]4)COCC5)C3=O)CC1)C2=O [Example 16]
- AC50 (Axin2 protein): 7 ± 1 nM
- IC50 [2]: 12 ± 1 nM
- IC50 [3]: 1.7 ± 0.2 nM
- IC50 [4]: 82 nM

Compound: COc1ccc2c(c1)CC1(CCN([C@@H]3CCN(Cc4nc5c(c(=O)[nH]4)COCC5)C3=O)CC1)C2=O [Example 17]
- AC50 (Axin2 protein): 1790 ± 140 nM
- IC50 [2]: 3850 ± 480 nM
- IC50 [3]: 396 ± 10 nM
- IC50 [4]: 2000 ± 900 nM

Compound: COc1ccc(C(=O)C2CCN(C3CCN(Cc4nccc(=O)[nH]4)C3=O)CC2)cc1 (stereo not drawn) [Example 22, 2-{3-[4-(4-Methoxy-benzoyl)-piperidin-1-yl]-2-oxo-pyrrolidin-1-ylmethyl}-3H-pyrimidin-4-one]
- IC50 [1]: 764 ± 56 nM
- IC50 [2]: 1500 ± 120 nM
- IC50 ([3]; Homo sapiens): 390 ± 190 nM

Compound: COc1ccc(C(=O)C2CCN(C3CCN(Cc4nc5ccccc(=O)c5[nH]4)C3=O)CC2)cc1 (stereo not drawn) [Example 27, 2-((3-(4-(4-methoxybenzoyl)piperidin-1-yl)-2-oxopyrrolidin-1-yl)methyl)cyclohepta[d]imidazol-4(3H)-one]
- AC50 (Axin2 protein; Homo sapiens): 3.2 ± 0.1 nM
- IC50 [2]: 36 ± 3 nM
- IC50 ([3]; Homo sapiens): 0.4 ± 0.3 nM
- IC50 ([4]; Homo sapiens, 72 h): 1.5 nM

Compound: COc1ccc(C(=O)C2CCN([C@H]3CCN(Cc4nc5ccccc(=O)c5[nH]4)C3=O)CC2)cc1 [Example 30, 2-{(S)-3-[4-(4-Methoxy-benzoyl)-piperidin-1-yl]-2-oxo-pyrrolidin-1-ylmethyl}-3H-cycloheptaimidazol-4-one]
- AC50 (Axin2 protein; Homo sapiens): 0.6 ± 0.1 nM
- IC50 [2]: 9.5 ± 0.7 nM
- IC50 ([3]; Homo sapiens): 1.1 ± 0.1 nM
- IC50 ([4]; Homo sapiens, 72 h): 0.86 ± 0.1 nM

Compound: COc1ccc(C(=O)C2CCN([C@H]3CCN(CC(=O)Nc4nnc5n4CCS5)C3=O)CC2)cc1 [Example 33]
- AC50 (Axin2 protein): 1340 ± 110 nM
- IC50 [2]: 830 ± 20 nM
- IC50 [4]: 1610 nM

Compound: COc1ccc(C(=O)C2CCN(C3CCN(CC(=O)Nc4nnnn4C)C3=O)CC2)cc1 (stereo not drawn) [Example 36, 2-(3-(4-(4-methoxybenzoyl)piperidin-1-yl)-2-oxopyrrolidin-1-yl)-N-(1-methyl-1H-tetrazol-5-yl)acetamide]
- IC50 [1]: 1480 ± 20 nM
- IC50 [2]: 3080 ± 230 nM
- IC50 ([3]; Homo sapiens): 7600 ± 800 nM
- IC50 ([4]; Homo sapiens, 72 h): > 10000 nM

Compound: COc1ccc(C(=O)C2CCN(C3CCN(CC(=O)Nc4nncc5c4CCCO5)C3=O)CC2)cc1 (stereo not drawn) [Example 37, N-(3,4-dihydro-2H-pyrano[2,3-d]pyridazin-5-yl)-2-(3-(4-(4-methoxybenzoyl)piperidin-1-yl)-2-oxopyrrolidin-1-yl)acetamide]
- IC50 [1]: 970 ± 60 nM
- IC50 [2]: 3010 ± 60 nM
- IC50 ([3]; Homo sapiens): 396 ± 26 nM
- IC50 ([4]; Homo sapiens, 72 h): 2230 nM

Compound: COc1ccc(C(=O)C2CCN(C3CCN(CC(=O)Nc4noc5ncccc45)C3=O)CC2)cc1 (stereo not drawn) [Example 38, N-(isoxazolo[5,4-b]pyridin-3-yl)-2-(3-(4-(4-methoxybenzoyl)piperidin-1-yl)-2-oxopyrrolidin-1-yl)acetamide]
- IC50 [1]: 4560 ± 40 nM
- IC50 [2]: 6500 ± 800 nM
- IC50 ([3]; Homo sapiens): 2030 ± 180 nM
- IC50 ([4]; Homo sapiens, 72 h): 7900 nM
